# How the values were obtained:
# [1] = molecular target: hemoglobin (Homo sapiens, UniProt P68871+P69905); conditions: PBS pH 7.4, 300 μM nitrite, heme 1 mM; compared to SNO-oxyhemoglobin samples
# Method: For assay by EPR, spectroscopy was carried out as described in Gow, A. J., et al, Proc. Natl. Acad. Scie. […] SNO-oxyhemoglobin samples (0.5 mM protein) for comparison were prepared as described in Jia, L., et al, Nature, 380, 221-226 (1996).
# Comparison was to SNO-oxyhemoglobin samples (0.5 mM protein) prepared as described in Jia, L., et al, Nature 380, 221-226 (1996).
# [2] = test system: outdated red blood cells; experiment: Organ chamber bioassay of vasodilator response at low pO2, outdated red blood cells (Example V); format: cell-based; conditions: for relaxations: 1:250 molar ratio NO or nitrite to hemoglobin, deoxygenated with argon, then oxygenated by air, FIG. 3
# From the text: Samples from each set were deoxygenated by bubbling argon gas therethrough and then admixed with PBS, PBS with NO dissolved therein or PBS with sodium nitrite dissolved therein. The treatments loaded the red blood cells with 1:250 molar ratio NO or nitrite to hemoglobin. The red blood cells were then oxygenated by exposure to air.
# [3] = test system: native fresh red blood cells
# Method: The samples were deoxygenated by placing them in a bioassay bath at low pO2. Then, in paired samples, sodium nitrite (1:200 molar ratio of nitite to hemoglobin in phosphate buffered saline) was added to the deoxygenated red blood cells for 10 minutes. The samples were then re-oxygenated by reintroducing air followed by shaking.
# [4] = Infusion in patient with unstable angina (Example II); format: in vivo, human
# From the text: A person is admitted to a hospital with unstable angina. The patient is given I.V. nitroglycerin, heparin and a beta blocker. However, the patient continues to experience chest pain at rest. The patient's normal NO level is known from past testing. […] Infusion at a rate of 5 nmol/min of NO in 0.9% NaCl is effected. The chest pain resolves.
# [5] = test system: Red cells; experiment: Storage of red cells incubated with NO at weekly intervals (Example VI); format: cell-based; conditions: 1:250 molar ratio NO to hemoglobin, 10 minutes at weekly intervals; at 8 weeks
# Method: Red cells are incubated at a molar ratio of 1:250 NO to hemoglobin for 10 minutes at weekly intervals. At 8 weeks, NO levels and vasodilator response are preserved.
# [6] = Transfusion of NO-doped blood unit in patient with severe coronary artery disease (Example VII); format: in vivo, human; conditions: person; second blood unit doped with NO, 1:250 molar ratio of NO to hemoglobin
# [7] = Infusion in patient with primary pulmonary hypertension class II (Example III); format: in vivo, human
# From the text: A person with primary pulmonary hypertension class II presents complaining with shortness of breath. The patient's normal NO level is know from prior testing. […] Infusion of NO in 0.9% NaCl at a rate of 5 nmol/min of NO is effected. The shortness of breath symptom resolves. After three days of therapy, pulmonary artery pressure has dropped 5 mm of mercury.
# [8] = anaerobic saturated solution in saline infused at 100 nmol/min
# hemoglobin, sequence (P69905 2-142 limits assumed): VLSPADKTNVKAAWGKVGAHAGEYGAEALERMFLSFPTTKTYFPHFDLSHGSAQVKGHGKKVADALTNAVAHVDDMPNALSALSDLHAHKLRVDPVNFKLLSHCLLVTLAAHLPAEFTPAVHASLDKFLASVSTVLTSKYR
# hemoglobin, sequence (P68871 2-147 limits assumed): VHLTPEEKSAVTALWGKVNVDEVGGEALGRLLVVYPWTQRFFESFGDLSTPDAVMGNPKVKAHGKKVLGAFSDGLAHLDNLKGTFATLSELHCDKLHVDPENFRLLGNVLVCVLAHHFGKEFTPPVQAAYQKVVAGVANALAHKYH
Structure (SMILES),oxygen delivery improving activity identified with NO [1],relaxations [2],vasodilator response [3],chest pain ([4]; nitrite additionally given at 100 nmol/min with the NO infusion),vasodilator response [5],chest pain on transfusion [6],"drop of pulmonary artery pressure ([7]; after three days of therapy, NO 5 nmol/min)","shortness of breath symptom ([7]; person, infusion of NO in 0.9% NaCl at 5 nmol/min)","chest pain ([4]; person, unstable angina, infusion 5 nmol/min of NO in 0.9% NaCl)","vasodilator response ([2]; 1:200 molar ratio nitrite to hemoglobin in PBS, added to deoxygenated cells for 10 minutes, then re-oxygenated, FIG. 2)",oxygen delivery [8]
O=NO [nitrite],facilitated,improved and effectively normalized,no effect,resolves more quickly,–,–,–,–,–,–,–
"[N]=O [NO, nitric oxide]",–,improved and effectively normalized,–,–,preserved,not experienced,5 mm of mercury,resolves,resolves,–,–
O=NO [sodium nitrite],–,–,–,–,–,–,–,–,–,normalize,Improved

# — patent US20060088942A1, “Measuring nitric oxide in blood gases and treatments based thereon” (priority 2002, published 2006)
